Measured values published in publication PMC10222203 (Pharmaceutics, 2023).
Values joined by “and” are separate entries in the source; they are usually repeats but may differ in a detail not shown here. Identical values can stand only once. Like-named read-outs stand apart in the source and are kept apart here.

Assays:
in vitro [1] = experiment: in vitro
Method: (§1) The in vitro BBB model, consisting of CD34^+ endothelial cells (ECs) derived from hematopoietic stem cells in co-culture with bovine brain pericytes, was established as described by Cecchelli et al.. Written and informed consent was obtained for the collection of human umbilical cord blood, in compliance with French legislation. […] All experiments were carried out in line with the authorized protocol.
(§2) These isolated CD34+ cells were cultured in EGM-2, supplemented with 20% (v:v) FBS and 50 ng/mL vascular endothelial growth factor on 1% (w:v) gelatine-coated 24-well plates (2 × 10^5 cells/well). After 15–20 days, ECs are seen in the culture dish. For each experiment, the cells were expanded in 1% (w:v) gelatine-coated T75 flasks (BD Biosciences, Le Pont-de-Claix, France) in EGM-2. Bovine brain pericytes were isolated and characterized as described by Vandenhaute et al.. Sub-clones were cultured in Dulbecco’s Modified Eagle’s Medium supplemented with 20% (v:v) FBS, 2 mM L-glutamine, 50 µg/mL gentamycin, and 1 ng/mL basic fibroblast growth factor. At confluency, 5 × 10^4 cells were seeded in ECM-5 with 5% (v:v) FBS, 50 µg/mL gentamycin, and 0.5% endothelial cell growth factor in gelatine-coated 12-well plates (Costar, Corning Inc., New York, NY, USA). CD34^+-derived ECs were seeded at 8 × 10^4 cells per Matrigel-coated (BD Biosciences) insert (3401, Corning Inc., NY, USA) and put in co-culture with the bovine brain pericytes, with the pericytes at the bottom of the well, for 6 days to achieve brain-like endothelial cell (BLEC) characteristics (Figure 4b).
(§3) At the beginning of the permeability experiments, inserts with BLEC monolayers were transferred to new abluminal (receiver) compartments previously filled with 1.5 mL of RH buffer, and 500 µL of the compounds dissolved in RH buffer, with the addition of the paracellular marker sodium fluorescein (NaFlu), were added to the luminal (donor) compartment. After 3 h of incubation at 37 °C, with a shaking velocity of 60 rpm, aliquots were taken from the donor and receiver compartment. The BLEC monolayers were washed twice with cold RH buffer and lysed with RLT Lysis buffer. The samples were kept at −20 °C pending analysis in low-binding tubes.
(§4) An increase in the permeability to NaFlu in the presence of the peptide can indicate an increase in paracellular leakage and consequent loss of barrier integrity. To evaluate the ability of test compounds to cross Matrigel-coated filters without cells and to control for the adsorption to plastics and/or Matrigel, the NaFlu and peptide’s permeability over inserts without cells were also assessed. Mass balance (M.B%) was calculated from the amount of compound recovered in both compartments at the end of the experiment divided by the total amount added to the donor compartment at the start of the experiment.
(§5) Samples from both compartments as well as the lysed endothelial cells were analysed for fluorescence using a Synergy H1 (Biotek) set to quantify NaFlu (wavelengths Excitation 490 nm and Emission 525 nm) and with UPLC-MS/MS to assess the permeability and cellular uptake of the peptides. All experiments were performed in triplicate (n = 3 independent experiments per concentration and cCPPs).
(§6) Papp is the apparent permeability, J is the rate of appearance of the compound in the receiver compartment (amount/sec), and C0 is the concentration in the donor compartment at the start of the experiment (amount/mL).

[2] = test system: brain-like endothelial cells (BLECs); experiment: in vitro
Method: as §1, §2, §3, §4, §5, §6

in vitro [3] = experiment: in vitro; remark: listed apart in the source
[4] = Simulation of unbound brain exposure (two-compartment model, Berkeley Madonna); set-up: species or system rat; details: parameter used in simulation; for clearance: read-out: Systemic clearance, CL (converted); for Vd: rat
Method: The simulation was performed at given initial total plasma concentration to be equal to steady-state concentrations obtained in the neuroPK study (Table 2), utilizing the parameters listed in Supplementary Material Table S3. A two-compartment model consisting of blood and brain compartments with a focus on unbound concentrations was characterized (Supplementary Material Figure S1 describes the structure of the model and the codes).

brain slices = test system: brain slices
Method: (§7) The brain slice assay was performed according to previously published protocols. Three animals per study group were investigated. All glassware used in the brain slice experiments was silanized using dimethyldichlorosilane in heptane to avoid non-specific binding of the cyclic peptides to glass. In short, the silanization solution was added to the glassware and left there for one hour, after which the glassware was rinsed with methanol and then placed in a heating cabinet to cure. Slicing was performed with a Leica VT1200 microtome slicer (Leica Microsystems, Wetzlar, Germany). […] At the end of the incubation, two 200 µL samples of aECF were taken and mixed with blank brain homogenate (1:4, w:v) for assessment of unbound buffer concentration, Cbuffer (nanomoles per mL). Thereafter, the brain slices were individually sampled, carefully dried on filter paper, weighed, and homogenized in aECF (1:9, w:v) to determine the total amount of drug in the slice, Aslice (nanomoles per g brain). The density of brain tissue was assumed to be 1 g/mL. The key assumption of the assay is achievement of equilibrium during 5 h incubation, with Cbuffer being equal and representing unbound brain slice interstitial concentration. Samples of aECF (200 µL) were also taken from the scintillation vial without brain slices at the start and at the end of the incubation to determine the relative recovery and thermostability of the peptides. The unbound volume of distribution in brain, Vu,brain (mL/g brain), was calculated using Equation (3). (3) Vu,brain =Aslice−Vi×Cbuffer/Cbuffer(1−Vi) where Vi is the volume of buffer film that coats the slice and equals to 0.094 mL/g brain [39].
(§8) To study the potential mechanism of intracellular distribution of the peptides, several exploratory experiments were performed (Figure 2a). […] In addition, the role of endocytosis and pH partitioning-driven distribution was investigated. The slices were pre-incubated for 30 min with the blockers before the addition of the peptides. Dynasore was used as an inhibitor of dynamin-dependent endocytosis, which is involved in both clathrin and caveolin vesicle formation (Figure 3a). […] Due to high cytotoxicity, the concentration of […] was chosen based on previous studies.
(§9) The unbound intracellular-to-extracellular concentration ratio, Kp,uu,cell, was calculated according to Equation (14) by combining the brain slice derived, Vu,brain, with the measurement of brain tissue binding, fu,brain, from the tissue homogenate study. This allows elucidation of whether the uptake into the brain cells is driven mainly by passive processes and intracellular binding and/or partitioning, such as lysosomal trapping, or by active uptake into the cells. (14) Kp,uu,cell=fu,brain×Vu,brain

[5] = rat, Kp,uu,cell
Method: as §7, §8, §9

[6] = brain tissue homogenate, equilibrium dialysis
[7] = rat weight 0.3 kg, read-out: Apparent volume of distribution, Vd
[8] = read-out: Apparent volume of distribution unbound, Vd,u
[9] = rat brain slices, 200 nM, 5 h, 37 °C
[10] = Unbound intracellular-to-extracellular (interstitial) concentration ratio, brain slices 37 °C, fu,brain × Vu,brain

CC(C)C[C@@H]1NC(=O)CNC(=O)[C@H](CC(N)=O)NC(=O)[C@H](CCCNC(=N)N)NC(=O)[C@H]([C@@H](C)O)NC(=O)[C@@H]2CSSC[C@@H]3NC(=O)[C@H]([C@@H](C)O)NC(=O)CNC(=O)CNC(=O)[C@H](C(C)C)NC(=O)[C@@H]4CSSC[C@H](NC(=O)[C@H]([C@@H](C)O)NC(=O)[C@H](CSSC[C@H](NC(=O)[C@H](C(C)C)NC(=O)[C@@H]5CCCN5C1=O)C(=O)NCC(=O)N[C@@H](CCC(=O)O)C(=O)N[C@@H]([C@@H](C)O)C(=O)N4)NC(=O)CNC(=O)[C@@H]1CCCN1C(=O)[C@H]([C@@H](C)O)NC(=O)[C@H](CC(N)=O)NC3=O)C(=O)N[C@@H](CO)C(=O)N[C@@H](Cc1c[nH]c3ccccc13)C(=O)N1CCC[C@H]1C(=O)N[C@@H](C(C)C)C(=O)N2 [Kalata B1]
Papp (in vitro [1]; Endothelial permeability, Pe (average across concentrations), BLEC monolayer, 3 h, 37 °C): 3.83 ×10⁻⁶ cm/s
Papp (in vitro [1]; Papp, human in vitro BBB model, value used in simulation (Table S3)): 3.19 ×10⁻⁶ cm/s
Percent of the initial amount in the lysed endothelial cells ([2]; BLECs exposed to 1000 nM peptide): 0.09%
Percent of the initial amount in the lysed endothelial cells ([2]; BLECs exposed to 2000 nM peptide): 0.23%
Percent of the initial amount in the lysed endothelial cells ([2]; BLECs exposed to 4000 nM peptide): 3.50%
Percent of the initial amount in the lysed endothelial cells ([2]; BLECs pre-exposed to 500 nM peptide): 0.19%
Bound to brain tissue constituents (in vitro [3]; [6]): 93%
fraction unbound (in vitro [3]; rat, brain homogenate): 0.0639 ± 0.0072
clearance ([4]; rat weight 0.3 kg): 0.48 mL/min
Vd [4, 7]: 0.0966 L
Vd [4, 8]: 0.029 L
Reduction in Kp,uu,cell from 37 °C to 4 °C (brain slices; brain slices): 138 fold
Intra-brain distribution (Vu,brain) relative to SFTI-1 (brain slices; brain slices 37 °C): ca. 350 fold
Unbound intracellular-to-extracellular (interstitial) concentration ratio, Kp,uu,cell (brain slices; brain slices 37 °C, fu,brain × Vu,brain): 9.73 ± 3.35
Unbound volume of distribution in brain, Vu,brain (brain slices; brain slices incubated at 4 °C): 1.12 mL/g brain
Reduction in Vu,brain after pre-incubation with dynasore (brain slices; brain slices, dynasore 50 µM, 30 min pre-incubation): 23%
Unbound volume of distribution in brain, Vu,brain (brain slices; [9]): 152 ± 29.9 mL/g brain
Unbound volume of distribution in brain, Vu,brain (brain slices; rat brain slices, 200 nM, 5 h, 37 °C, listed as kalata B1): 152 mL/g brain
Kp uu ([5]; brain slices incubated at 4 °C): 0.0721
Kp uu [5, 10]: 9.7

CC[C@H](C)[C@@H]1NC(=O)[C@@H]2CCCN2C(=O)[C@@H]2CCCN2C(=O)[C@H]([C@@H](C)CC)NC(=O)[C@H](CO)NC(=O)[C@H](CCCCN)NC(=O)[C@H]([C@@H](C)O)NC(=O)[C@@H]2CSSC[C@H](NC1=O)C(=O)N[C@@H](Cc1ccccc1)C(=O)N1CCC[C@H]1C(=O)N[C@@H](CC(=O)O)C(=O)NCC(=O)N[C@@H](CCCNC(=N)N)C(=O)N2 [SFTI-1, sunflower trypsin inhibitor-1]
Papp A→B at 3 h (in vitro [1]; human, pH 7.4): 2.62 ×10⁻⁶ cm/s
Papp at 3 h (in vitro [1]; human, pH 7.4, Endothelial permeability, Pe (average across concentrations), BLEC monolayer, 3 h, 37 °C): 3.8 ×10⁻⁶ cm/s
Detection in the lysed endothelial cells ([2]; BLECs at end of transport experiment): did not detect
Brain tissue binding (in words) (in vitro [3]; [6]): almost no brain tissue-binding capacity
fraction unbound at 6 h, 1 µM (in vitro [3]; rat, brain homogenate (1 part brain with 4 parts PBS), pH 7.4): 0.951 ± 0.115
CLin [4]: 0.0017 L/h
CLout [4]: 0.01317 L/h
Systemic clearance unbound, CLu [4]: 0.0307 L/h
Total steady-state plasma concentration, Cplasma,ss [4]: 0.6052 mg/L
Unbound steady-state plasma concentration, Cplasma,u,ss [4]: 0.5665 mg/L
clearance ([4]; rat weight 0.3 kg): 0.545 mL/min
Vd [4, 7]: 0.0573 L
Vd [4, 8]: 0.054 L
Unbound volume of distribution in brain, Vu,brain (brain slices; brain slices incubated at 4 °C): 0.56 mL/g brain
Unbound volume of distribution in brain, Vu,brain (brain slices; [9]): 0.436 mL/g brain and 0.436 ± 0.064 mL/g brain
Kp uu ([5]; mean values across experimental conditions, brain slices, 4 °C, inhibition of endocytosis, or dissipation of the pH gradient): 0.3 to 0.47
Kp uu [5, 10]: 0.415 ± 0.079
